Each block holds one compound with its values, some of them ahead of it.
Tests used:
[1] = cited from earlier work; for pI: amino acid isoelectric point; for pKa (—COOH group) / pKa (—NH3 group): amino acid
[2] = Spectrocolorimeter (CM-5) measurement of samples before and after adsorption and desorption measurement; format: physicochemical
Method: Changes in the samples between before and after the measurement of the adsorption and desorption isotherms were measured using Konica Minolta, Inc.'s spectrocolorimeter (CM-5). The measurement conditions were reflection measurement and the SCI method, and the measurements were taken with the observation window of a 3-mm φ target mask covered with the glass container after the adsorption and desorption measurement. A blank tube, with no sample placed in it, was also subjected to the measurement, through which a measurement in a transparent state was determined. The measurements are converted values for a 10° field of view and a D65 light source.

[3] = for State of sample after the end of the measurement: FIG. 2, after adsorption and desorption measurement; for Deliquescence: conclusion from isotherm and appearance; for Appearance after storage: tubes tightly closed, stored 9 days at normal temperature after measurement
Method: For the measurement, MicrotracBEL (MicrotracBEL Corporation) BELSORP MAX III was used. As a pretreatment of samples, the samples were vacuum-dried at 105° C. until the leakage was 1 Pa/min or less.
The measurement conditions were set as follows. • At relative pressures (humidity levels) from 0.025 to 0.3: measurements are taken at relative pressure intervals of 0.025 • At relative pressures (humidity levels) beyond 0.3 to 0.95: measurements are taken at relative pressure intervals of 0.05
After reaching a relative pressure of 0.95: measurements are taken at equal relative pressure intervals until a relative pressure of 0.1 (For TSP, however, the relative pressure limit was set to approximately 0.5 because measurement accuracy is reduced due to a prolonged measurement time.)
The equilibration conditions were that at relative pressures of 0.9 or lower, pressure changes should be 0.3% or smaller variations over 300 sec, and that at relative pressures of 0.9 or higher, pressure changes should be 0.3 Pa, as a pressure value, or smaller variations over 300 sec.

[4] = after adsorption and desorption measurement
[5] = before adsorption and desorption measurement
[6] = 9 days after adsorption and desorption measurement

Structure (SMILES): C[C@H](N)C(=O)O [Alanine]
pI [1]: 6 | pKa (—COOH group) [1]: 2.34

Structure (SMILES): N=C(N)NCCC[C@H](N)C(=O)O [Arginine, arginine]
L* (D65) [2, 4]: 94.8 | a* (D65) [2, 4]: −0.2 | b* (D65) [2, 4]: 0.1 | L* (D65) [2, 5]: 99.0 | a* (D65) [2, 5]: −0.1 | b* (D65) [2, 5]: 0.4 | pI [1]: 10.76 | pKa (—COOH group) [1]: 2.17

Structure (SMILES): NC(=O)C[C@H](N)C(=O)O [Asparagine]
pI [1]: 5.41 | pKa (—COOH group) [1]: 2.02

Structure (SMILES): N[C@@H](CC(=O)O)C(=O)O [Aspartic acid]
pI [1]: 2.77

Structure (SMILES): N[C@@H](CS)C(=O)O [Cysteine]
pI [1]: 5.07 | pKa (—NH3 group) [1]: 10.28

Deliquescence [3]: have deliquescence | Appearance after storage [3]: maintained the degree of transparency | L* (D65) [2, 6]: 33.1 | a* (D65) [2, 6]: −0.3 | L* (D65) [2, 4]: 26.5 | a* (D65) [2, 4]: −0.3 | b* (D65) [2, 4]: −0.9 | L* (D65) [2, 5]: 87.1 | a* (D65) [2, 5]: −0.1
Structure (SMILES): NCCCC(=O)O [GABA, γ-aminobutyric acid]
State of sample after the end of the measurement [3]: transitioned to a transparent liquid state | pI [1]: 7.3 | pKa (—COOH group) [1]: 4.23

L* (D65) [2, 6]: 53.6 | a* (D65) [2, 6]: −0.7
Structure (SMILES): N[C@@H](CCC(=O)O)C(=O)O [Glutamic acid]
pI [1]: 3.22

Structure (SMILES): NCC(=O)O [Glycine]
pI [1]: 5.97

Structure (SMILES): N[C@@H](Cc1c[nH]cn1)C(=O)O [Histidine]
pI [1]: 7.59

Structure (SMILES): O=C(O)[C@@H]1C[C@@H](O)CN1 [Hydroxyproline]
pKa (—COOH group) [1]: 1.82 | pKa (—NH3 group) [1]: 9.65

Structure (SMILES): CC[C@H](C)[C@H](N)C(=O)O [Isoleucine]
pI [1]: 6.02 | pKa (—COOH group) [1]: 2.36

Structure (SMILES): NCCCC[C@H](N)C(=O)O [Lysine]
pI [1]: 9.74 | pKa (—COOH group) [1]: 2.18

Deliquescence [3]: have deliquescence | Appearance after storage [3]: became a whitened film form | L* (D65) [2, 4]: 33.7 | a* (D65) [2, 4]: −0.1 | b* (D65) [2, 4]: −0.2 | L* (D65) [2, 5]: 84.8 | a* (D65) [2, 5]: −0.2 | b* (D65) [2, 5]: 1.1
Structure (SMILES): N[C@@H](CCC(=O)O)C(=O)[O-].[Na+] [MSG, Na glutamate]
State of sample after the end of the measurement [3]: transitioned to a transparent liquid state

Structure (SMILES): CSCC[C@H](N)C(=O)O [Methionine]
pI [1]: 5.74 | pKa (—COOH group) [1]: 2.28 | pKa (—NH3 group) [1]: 9.21

Structure (SMILES): N[C@@H](Cc1ccccc1)C(=O)O [Phenylalanine]
pI [1]: 5.48 | pKa (—COOH group) [1]: 1.83 | pKa (—NH3 group) [1]: 9.13

Structure (SMILES): O=C(O)[C@@H]1CCCN1 [Proline]
pI [1]: 6.3

Structure (SMILES): O=C1CC[C@@H](C(=O)O)N1 [Pyroglutamic acid]
pI [1]: 5.68

Structure (SMILES): N[C@@H](CO)C(=O)O [Serine]
pI [1]: 5.68

Structure (SMILES): O=P([O-])([O-])[O-].[Na+].[Na+].[Na+] [TSP, trisodium phosphate, reference compound]
L* (D65) [2, 4]: 92.4 | a* (D65) [2, 4]: −0.1 | b* (D65) [2, 4]: 0.1 | L* (D65) [2, 5]: 98.5 | a* (D65) [2, 5]: 0.0 | b* (D65) [2, 5]: 0.5

Structure (SMILES): C[C@@H](O)[C@H](N)C(=O)O [Threonine]
pI [1]: 5.6 | pKa (—COOH group) [1]: 2.09

Structure (SMILES): N[C@@H](Cc1c[nH]c2ccccc12)C(=O)O [Tryptophan]
pI [1]: 5.89 | pKa (—COOH group) [1]: 2.83

Structure (SMILES): N[C@@H](Cc1ccc(O)cc1)C(=O)O [Tyrosine]
pI [1]: 5.66

Structure (SMILES): CC(C)[C@H](N)C(=O)O [Valine]
pI [1]: 5.96 | pKa (—NH3 group) [1]: 9.62

Reference: patent US20250194663A1, “ORAL POUCH PRODUCT CONTAINING AMINO ACID OR SALT THEREOF” (Japan Tobacco Inc., priority 2022, published 2025)
